Laboratory results reported in ChEMBL document CHEMBL1201862, “PubChem BioAssay data set” (2004).
Activity calls are given as the source filed them.

What was measured:
[1] = molecular target: T1, DNA repair protein RAD52 homolog (Homo sapiens, UniProt P43351); format: functional, biochemical
T1 sequence (P43351 whole entry): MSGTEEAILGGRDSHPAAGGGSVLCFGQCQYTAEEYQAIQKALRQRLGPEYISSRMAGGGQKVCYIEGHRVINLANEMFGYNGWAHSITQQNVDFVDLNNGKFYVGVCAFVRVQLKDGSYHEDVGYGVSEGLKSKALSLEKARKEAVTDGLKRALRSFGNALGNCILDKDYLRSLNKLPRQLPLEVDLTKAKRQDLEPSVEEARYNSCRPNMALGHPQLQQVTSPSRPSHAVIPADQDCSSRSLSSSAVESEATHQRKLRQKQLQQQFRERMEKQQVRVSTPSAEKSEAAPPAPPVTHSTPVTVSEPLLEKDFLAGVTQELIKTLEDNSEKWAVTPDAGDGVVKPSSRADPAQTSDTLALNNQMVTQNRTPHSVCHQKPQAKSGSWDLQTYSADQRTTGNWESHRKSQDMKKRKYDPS

[2] = molecular target: T2, DNA repair and recombination protein RAD54-like (Homo sapiens, UniProt Q92698); assay: inhibitors of human RAD54 branch migration, confirmation, biochemical, fluorescence, cherry-picked samples, dose series (AID 651657); format: functional
T2 sequence (Q92698 whole entry): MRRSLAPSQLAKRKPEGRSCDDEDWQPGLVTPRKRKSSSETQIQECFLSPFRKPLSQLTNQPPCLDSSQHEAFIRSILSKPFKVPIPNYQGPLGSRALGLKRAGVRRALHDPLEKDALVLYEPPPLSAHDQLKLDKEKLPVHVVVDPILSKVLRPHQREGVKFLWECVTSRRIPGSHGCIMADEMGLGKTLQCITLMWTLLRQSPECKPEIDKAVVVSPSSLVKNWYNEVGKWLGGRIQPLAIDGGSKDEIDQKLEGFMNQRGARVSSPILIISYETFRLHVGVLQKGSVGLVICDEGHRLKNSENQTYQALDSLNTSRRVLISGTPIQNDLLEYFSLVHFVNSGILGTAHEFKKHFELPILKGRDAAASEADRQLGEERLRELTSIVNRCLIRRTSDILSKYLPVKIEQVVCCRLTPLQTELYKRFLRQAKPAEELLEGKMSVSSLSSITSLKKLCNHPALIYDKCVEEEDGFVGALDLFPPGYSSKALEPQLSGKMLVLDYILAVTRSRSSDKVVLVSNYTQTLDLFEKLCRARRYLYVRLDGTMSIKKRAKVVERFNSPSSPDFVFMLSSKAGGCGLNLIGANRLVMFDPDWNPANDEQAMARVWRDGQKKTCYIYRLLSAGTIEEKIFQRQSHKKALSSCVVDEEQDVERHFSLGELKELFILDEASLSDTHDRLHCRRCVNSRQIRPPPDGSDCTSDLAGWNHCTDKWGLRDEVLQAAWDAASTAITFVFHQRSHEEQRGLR

[3] = cells; format: functional, cell-based
[4] = cells; format: functional, cell-based; remark: listed apart in the source
[5] = molecular target: T3, Trace amine-associated receptor 1 (Homo sapiens, UniProt Q96RJ0); assay: Fluorescence-based cell-based high throughput dose response assay to identify agonists of the human trace amine associated receptor 1 (TAAR1).; format: functional
T3 sequence (Q96RJ0 whole entry): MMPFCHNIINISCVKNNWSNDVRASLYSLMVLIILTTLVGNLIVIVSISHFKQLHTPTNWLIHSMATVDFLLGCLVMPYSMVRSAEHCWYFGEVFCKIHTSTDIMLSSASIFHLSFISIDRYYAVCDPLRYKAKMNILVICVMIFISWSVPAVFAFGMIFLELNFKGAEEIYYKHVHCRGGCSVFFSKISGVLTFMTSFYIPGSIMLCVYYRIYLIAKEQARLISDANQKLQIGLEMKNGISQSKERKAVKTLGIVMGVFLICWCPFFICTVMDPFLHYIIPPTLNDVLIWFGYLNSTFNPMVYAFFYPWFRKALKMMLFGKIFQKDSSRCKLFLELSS

[6] = molecular target: T3, Trace amine-associated receptor 1; assay: Counterscreen for agonists of the human trace amine associated receptor 1 (hTAAR1): Fluorescence-based cell-based high throughput dose response assay to identify hTAAR1 agonist that also desensitize TAAR1 receptor response.; format: functional
[7] = molecular target: Luciferin 4-monooxygenase (Photinus pyralis, UniProt P08659); assay: firefly luciferase enzyme inhibitors, dose response, biochemical, luminescence (AID 1891)
[8] = molecular target: T4, Oxysterols receptor LXR-beta (Homo sapiens, UniProt P55055); format: functional, cell-based;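 note: agonist activity at LXR measured by a cell-based luminescence readout across a dose range, run as a counterscreen for daf-12 agonists; HEK293 cells with Gal4-LXR fusion and GAL4-driven luciferase reporter; potency for activation of Gal4-LXR reporter so compounds are agonists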
T4 sequence (P55055 whole entry): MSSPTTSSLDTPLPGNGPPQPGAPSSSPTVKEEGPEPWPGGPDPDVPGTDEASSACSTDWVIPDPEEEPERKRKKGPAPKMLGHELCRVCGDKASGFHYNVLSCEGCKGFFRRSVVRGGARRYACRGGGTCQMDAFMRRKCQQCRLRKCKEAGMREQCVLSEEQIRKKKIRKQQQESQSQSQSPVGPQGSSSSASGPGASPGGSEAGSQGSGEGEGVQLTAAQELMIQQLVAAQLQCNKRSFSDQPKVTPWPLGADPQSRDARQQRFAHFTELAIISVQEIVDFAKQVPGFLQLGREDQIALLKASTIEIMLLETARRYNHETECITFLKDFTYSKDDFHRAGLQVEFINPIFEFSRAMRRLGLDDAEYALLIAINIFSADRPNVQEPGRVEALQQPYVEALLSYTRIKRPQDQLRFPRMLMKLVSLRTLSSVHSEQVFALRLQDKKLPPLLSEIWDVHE

[9] = Luminescence Cell-Based Dose Confirmation HTS to Identify Inhibitors of Platelet Dense Granule Release. [Related pubchem assays: 1663 (Primary HTS), 1678 (Summary of Project)]; format: functional
[10] = molecular target: Heat shock protein HSP 90-alpha (Homo sapiens, UniProt P07900); format: functional, organism-based
[11] = Luminescence Cell-Based Dose Retest to Confirm Inhibitors of Cancer Stem Cells. [Related pubchem assays (depositor defined):AID2717, AID2721]; format: functional; conditions: Homo sapiens
[12] = molecular target: Cytochrome P450 2C9 (Homo sapiens, UniProt P11712)
[13] = molecular target: Cytochrome P450 2C19 (Homo sapiens, UniProt P33261); assay: Cytochrome panel assay with activity outcomes. Panel member name: p450-cyp2c19 Compounds with AC50 equal or less than 10 uM are considered active; format: functional
[14] = cells
[15] = molecular target: Cytochrome P450 3A4 (Homo sapiens, UniProt P08684);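 note: CYP3A4 tested as one member of a cytochrome P450 panel screen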
[16] = molecular target: Major prion protein (Homo sapiens, UniProt P04156); format: functional, cell-based
[17] = Late stage assay provider results from the probe development effort to identify inhibitors of the Plasmodium falciparum M18 Aspartyl Aminopeptidase (M18AAP): radiolabel-based cell-based dose response assay to identify compounds that inhibit P. falciparum growth in RBCs, Set 2..; format: functional
[18] = P. falciparum Dd2 growth inhibitors, dose response, SYBR Green, cherry-picked samples (AID 1159567); format: functional, cell-based
[19] = HepG2 cell cytotoxicity, dose response, cytotoxicity control, plate reader, dry powder samples (AID 1159569); format: functional, cell-based;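 note: inhibitor potency with signal falling toward the positive control level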
[20] = P. falciparum 3D7-ScDHODH growth inhibitors, dose response, SYBR Green, dry powder samples (AID 1159570); format: functional, cell-based;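 note: parasite growth measured after 72 hours of compound exposure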
[21] = P. falciparum ATP4 D1247Y mutant growth inhibitors, dose response, NITD609-resistant line, SYBR Green, dry powder (AID 1159571); format: functional, cell-based;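 note: parasites synchronized at ring stage by sorbitol before testing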
[22] = P. falciparum Dd2 growth inhibitors, dose response, SYBR Green, dry powder samples (AID 1159566); format: functional, cell-based;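 note: potency for growth inhibition with lower SYBR green DNA signal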
[23] = HepG2 cell cytotoxicity, dose response, cytotoxicity control, ATP luminescence, cherry-pick, activator set 2 (AID 1053143); format: functional, cell-based
[24] = PAX5 activity inhibitors, dose response, selectivity assay for PAX8 inhibitor project, cell-based, plate reader, dry powder samples (AID 743047); format: functional;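 note: HEK293 cells carrying a Pax5 driven CD19 promoter luciferase reporter; potency of inhibitors that lower reporter luminescence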
[25] = molecular target: Paired box protein Pax-8 (Homo sapiens, UniProt Q06710); assay: inhibitors of PAX8-driven TPO luciferase reporter, dose response, RMG-I cells, cherry-pick (AID 687027); format: functional, cell-based;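 note: luciferase reporter driven by Pax8 target thyroperoxidase promoter measured by SteadyGlo luminescence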
[26] = cytotoxicity dependent on PAX8, dose response, cell-based, plate reader, dry powder (AID 743049); format: functional
[27] = system: Vero; assay: cells; format: functional; conditions: Chlorocebus sabaeus
[28] = molecular target: Photoreceptor-specific nuclear receptor (Homo sapiens, UniProt Q9Y5X4); format: functional, cell-based;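 note: CHO-S cells with Gal4-NCOR and VP16-NR2E3 two-hybrid luciferase reporter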
[29] = molecular target: T5, Rac GTPase-activating protein 1 (Homo sapiens, UniProt Q9H0H5); assay: MgcRacGAP GTPase-activating activity inhibitors, confirmation, biochemical, ADP Hunter fluorescence, primary and confirmatory (AID 624330); format: functional
T5 sequence (Q9H0H5 whole entry): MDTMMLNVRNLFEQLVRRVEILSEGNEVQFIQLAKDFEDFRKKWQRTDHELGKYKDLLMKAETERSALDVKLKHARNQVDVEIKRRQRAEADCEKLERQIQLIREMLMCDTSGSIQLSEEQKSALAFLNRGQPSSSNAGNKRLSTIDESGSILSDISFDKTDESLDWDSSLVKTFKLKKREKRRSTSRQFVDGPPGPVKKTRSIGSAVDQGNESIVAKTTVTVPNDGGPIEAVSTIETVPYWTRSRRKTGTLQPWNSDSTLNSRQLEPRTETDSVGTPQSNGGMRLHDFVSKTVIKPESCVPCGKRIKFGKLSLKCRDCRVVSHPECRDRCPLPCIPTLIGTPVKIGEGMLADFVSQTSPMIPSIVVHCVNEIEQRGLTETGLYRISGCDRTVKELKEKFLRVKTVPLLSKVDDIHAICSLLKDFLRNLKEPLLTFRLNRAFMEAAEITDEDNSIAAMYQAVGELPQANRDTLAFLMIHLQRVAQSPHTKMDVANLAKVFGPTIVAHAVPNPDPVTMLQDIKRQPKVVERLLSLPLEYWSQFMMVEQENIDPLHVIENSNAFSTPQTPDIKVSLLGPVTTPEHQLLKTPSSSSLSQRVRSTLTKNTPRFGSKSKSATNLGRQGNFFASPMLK

[30] = HeLa cell cytotoxicity, dose response, cytotoxicity control for MgcRacGAP inhibitor project (AID 624300); format: functional
[31] = molecular target: T6, Fatty acid synthase (Homo sapiens, UniProt P49327); assay: FAS thioesterase domain inhibitors, dose response, biochemical, endpoint fluorescence intensity, uHTS hits (AID 624327); format: functional;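 note: fluorescence from hydrolysis of an O-methyl fluorescein acyl ester substrate by the enzyme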
[32] = molecular target: T6, Fatty acid synthase; assay: FAS thioesterase domain inhibitors, dose response, biochemical, kinetic fluorescence intensity (AID 624326); format: functional;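 note: rate of fluorescence rise from hydrolysis of a fluorogenic O-methyl fluorescein ester substrate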

COc1cccc(-c2cc3nc(NCCN4CCCC4)n(C)c(=O)c3s2)c1
AC50 [1]: 5.5 µM (active)
AC50 [2]: 45.4 µM (active)

COc1cc(CCN)ccc1O
EC50 [3]: > 29.9 µM (inactive)
IC50 [4]: > 29.9 µM (inactive)
EC50 [5]: 2.4 µM (active)
IC50 [6]: 21.6 µM (inactive)

Oc1ccc(N=Nc2ccc3ccccc3c2)cc1
EC50 [7]: 0.712 µM (active)
EC50 [8]: > 67.5 µM (inactive)
EC50 [9]: 3.76 µM (active)
AC50 [10]: 4.38 µM (active)
AC50 [11]: 3.06 µM (active)

CC(=O)c1nnn(-c2nc(N)nc(N(c3ccccc3)c3ccccc3)n2)c1C
AC50 [12]: 31.6 µM (inconclusive)
AC50 [13]: 25.1 µM (inconclusive)
IC50 [14]: > 138 µM (inactive)
AC50 [15]: inconclusive
IC50 [16]: 1.92 µM (active)

O=C(CC(NCCc1ccccc1)C(=O)O)Nc1ccc(O)cc1 (stereo not drawn)
EC50 [3]: > 29.9 µM (inactive)
IC50 [4]: > 29.9 µM (inactive)
EC50 [5]: 7.65 µM (active)
IC50 [6]: > 29.9 µM (inactive)

COc1ccc(CCN(C)c2ccnc3cc(Cl)ccc23)cc1OC
IC50 [17]: 5.75 µM (active)

C[C@@H]1CN([C@H](C)CO)S(=O)(=O)c2ccc(-c3cccc(C(=O)N(C)C)c3)cc2O[C@H]1CN(C)Cc1ccc2c(c1)OCO2
AC50 [18]: 2.57 µM (active)
AC50 [19]: 64.7 µM (active)
AC50 [20]: 2.27 µM (active)
AC50 [21]: 1.51 µM (active)
AC50 [22]: 1.3 µM (active)

O=C(Oc1cccc(/C=N/NC(=O)c2ccccn2)c1)c1ccc([N+](=O)[O-])cc1
AC50 [23]: > 52 µM (inactive)

COc1cc(Br)c(CCNc2c3c(nc4ccccc24)CCCC3)cc1OC
IC50 [17]: 3 µM (active)

O=C(Nc1ccccn1)c1csc2c1CCCC2
EC50 [8]: > 67.5 µM (inactive)

O=C(NCC1CCCO1)c1ccc2c3n(nc2c1)-c1ccccc1CO3 (stereo not drawn)
AC50 [23]: > 52 µM (inactive)

c1cncc(-c2ccc([C@@H]3[C@@H]4CN(Cc5nccs5)C[C@H]3N4)cc2)c1
AC50 [18]: 2.15 µM (active)
AC50 [19]: 79.6 µM (active)
AC50 [20]: 2.97 µM (active)
AC50 [21]: 2.03 µM (active)
AC50 [22]: 1.72 µM (active)

COc1ccc(CCN(C)c2ccnc3ccccc23)cc1OC
IC50 [17]: 12 µM (inactive)

c1ccc(CCNC2CCCCCC2)cc1
EC50 [3]: > 29.9 µM (inactive)
IC50 [4]: > 29.9 µM (inactive)
EC50 [5]: 0.495 µM (active)
IC50 [6]: 1.72 µM (active)

CC(Cc1ccccc1)NCCC(c1ccccc1)c1ccccc1 (stereo not drawn)
AC50 [23]: 14.8 µM (active)
AC50 [11]: 10 µM (active)

O=C1/C(=C/c2cccc(Br)c2)SC(=S)N1CCC(=O)N(CCO)c1ccccc1
AC50 [24]: 91.4 µM (active)
AC50 [25]: 8.17 µM (active)
AC50 [26]: 34.3 µM (active)
CC50 [27]: > 25 µM (active)

O=C1C=CC2(O[C@H](c3ccccc3)[C@@H](c3ccccc3)O2)[C@H](Sc2ccccc2O)C1
IC50 [28]: 4.1 µM (active)
IC50 [29]: 43.8 µM (active)
AC50 [10]: 4.16 µM (active)
CC50 [30]: 50 µM (active)

Cc1ccc(NC(=O)c2cc(S(=O)(=O)N(C)C)ccc2N2CCCC2)cc1F
IC50 [14]: > 138 µM (inactive)
IC50 [31]: 13.3 µM (active)
IC50 [32]: 6.47 µM (active)
IC50 [16]: 9.92 µM (active)

COc1ccccc1Nc1c2ccccc2nc2ccccc12
AC50 [2]: 29.8 µM (active)

O=C(CSc1ncnc2ccccc12)NCCc1ccccc1
IC50 [14]: > 138 µM (inactive)
IC50 [16]: 6.69 µM (active)

O=c1[nH]c(=O)n(C2CC(O)C(CO)O2)cc1I (stereo not drawn)
EC50 [8]: > 67.6 µM (inactive)
